From US20140303045A1, “Biocidal Systems and Methods of Use” (Kemira Oyj, priority 2013, published 2014)
Entries after “also recorded” stand apart in the source; their conditions may differ.

Assays:
[1] = pH assessment and visual compatibility of first biocide with AMA-324 in polymer solution; assay type: physicochemical; conditions: for pH end: AMA-324 plus first biocide mixed 30 minutes, AMA-324 alone stirred 40 minutes; for pH after addition of first biocide: polymer solution with AMA-324 100 ppm plus first biocide 100 ppm (active), DBNPA 50 ppm; for Observations on adjusted pH solution: polymer solution with AMA-324 plus first biocide, after pH adjustment, visual appearance
Method: Seven standard polymer solutions were prepared by preparing a commercially-available polyacrylamide polymer using standard methods. The polymer was added to artificial seawater formulation (approximately 27° C., with the pH adjusted to 6.5 and buffered accordingly) and the solution was mixed utilizing a magnetic stirrer to obtain 200 mL of a 300 ppm (active) polymer solution. After mixing, the initial pH of each polymer solution was measured and recorded. The pH was measured using a calibrated bench top pH meter.
After the initial pH reading, 1 mL of the AMA-324 stock solution was added to 200 mL of the polymer solution to provide 100 ppm (active) of the biocide, and mixed for 10 minutes. The pH of the solution with the AMA-324 was then measured and recorded.
Following pH measurement of the polymer solutions containing AMA-324, 1 mL of a first biocide component stock solution (as described in Table 1) was added to each polymer mixture. The concentration of the biocide stock solutions were prepared to provide 100 ppm (active) in the polymer solution, except for DBNPA which was evaluated at 50 ppm (active). The polymer solutions with the AMA-324 and the first biocide components were mixed for 30 minutes, after which the pH was again measured.
Finally, one control experiment was performed with only the addition of AMA-324 to the polymer solution, stirred for 40 minutes with no other biocide addition.

[2] = tested on: SRB; experiment: Planktonic biocide efficacy, MPN enumeration, SRB; assay type: cell-based; conditions: FIG. 8 versus FIG. 14

O=CCCCC=O [GLUT, Glutaraldehyde]
pH end [1]: 9.12 | pH after addition of first biocide [1]: 9.29 | Observations on adjusted pH solution [1]: clear | Synergistic effect of dual biocide system with AMA-324 [2]: synergistic effect

N#CC(Br)(Br)C(N)=O [DBNPA, 2,2-dibromo-3-nitrilopropionamide]
pH end [1]: 8.44 | pH after addition of first biocide [1]: 8.04 | Observations on adjusted pH solution [1]: some turbidity; also recorded: cloudy

C12-16-alkyl dimethyl benzyl ammonium chloride [ADBAC quat]
pH end [1]: 9.18 | pH after addition of first biocide [1]: 9.57 | Observations on adjusted pH solution [1]: cloudy | Observations on adjusted pH solution ([1]; listed as ADBAC Quat): some turbidity

tetrakis(hydroxymethyl) phosphonium sulfate [THPS]
pH end [1]: 7.13 | pH after addition of first biocide [1]: 6.8 | Observations on adjusted pH solution [1]: clear | Synergistic effect of dual biocide system with AMA-324 [2]: synergistic effect
